According to US4939168A, “Discodermolide compounds, compositions containing same and methods of preparation and use” (Harbor Branch Oceanographics Institution, Inc., priority 1989, dated 1990):
In brackets after ≈: the same amount, converted by molar mass.

Tests used:
Type in all cases: cell-based
[1] = test system: human peripheral blood lymphocytes (PBL); test: Con A mitogenesis of human lymphocytes (mitogen stimulation assay); conditions: for Con A (counts per minute of incorporated 3H-thymidine): Con A 10.0 μg/ml, control 262000
Experimental: (§1) The pure compound discodermolide I, was tested for immunosuppressive effects on the MLR and LCV assays using murine splenocytes and in the human MLR and mitogen stimulation assays, using human peripheral blood lymphocytes (PBL). Cellular proliferation was determined using incorporation of ^3 H-thymidine.
^1 Counts per minute of incorporated ^3 Hthymidine. Conc. of Con

murine splenocytes [2] = test: murine lymphocyte viability assay (LCV), 3H-thymidine incorporation
Experimental: as §1

[3] = as above; conditions: mouse, splenocytes, read-out: % LCV Control (percent of the control LCV response)
Experimental: as §1

[4] = viability of cells in the human mixed lymphocyte reaction, M.T.T. metabolism
Experimental: as §1
^2 % Viable cells as measured by M.T.T. metabolism

[5] = test system: human peripheral blood lymphocytes (PBL); test: PHA mitogenesis of human lymphocytes (mitogen stimulation assay); conditions: for PHA (counts per minute of incorporated 3H-thymidine): PHA 10.0 μg/ml, control 412200
Experimental: as §1
^2 Counts per minute of incorporated ^3 Hthymidine. Conc. of PHA

[6] = test system: murine P388 leukemia cells; test: P388 cytotoxicity (antiproliferative effect, MTT); conditions: Mus musculus, 48-h exposure
Experimental: The crude ethanolic extract of the sponge and the pure compound I were tested for toxicity against murine P388 leukemia cells. P388 cells obtained from Dr. J. Mayo, National Cancer Institute, Bethesda, MD, were maintained in Roswell Park Memorial Institute (RPMI) medium 1640 supplemented with 10% horse serum. All cell lines were cultured in plastic tissue culture flasks and kept in an incubator at 37° C. in humidified air containing 5% CO2. Antibiotic-free stock cultures of P388 cells were subcultured to 10^5 cells/ml by dilution in fresh growth medium at 2 to 3 day intervals. The mean generation time of primary cultures was 14 to 17 hr.
To assess the antiproliferative effects of agents against P388 cells, 200 μl cultures (96-well tissue culture plates, Nunc, Denmark) were established at 1×10^5 cells/ml in drug-free medium or medium containing the crude extract at a final dilution of 1:500 or discodermolide at various concentrations. Solvent for all dilutions was methanol, which was removed from plates under vacuum. All experimental cultures were initiated in medium containing Gentamycin sulfate (50 μg/ml; Schering Corporation, Kenilworth, NJ). After 48-h exposures, P388 cells were enumerated using 3-[4,5-Dimethylthiazol-2-yl]-2,5-diphenyltetrazolium bromide (MTT) as described below (M. C. Alley, et al., Cancer Res. 48:589, 1988).
To quantitate the effects on cell proliferation, 75 μl of warm growth medium containing 5 mg/ml MTT was added to each well and cultures were returned to the incubator for 90 minutes. To spectrophotometrically quantitate formation of reduced formazan, plates were centrifuged (900×g, 5 minutes), culture fluids removed by aspiration, and 200 μl of acidified isopropanol (2 ml concentrated HCl/liter isopropanol) added per well. The absorbance of the resulting solutions were measured at 570 nm with a plate reader (MR700 Microplate Reader, Dynatech, Laboratories, Chantilly, Va.). […] A linear relationship between P388 cell number and formazan production was found over the range of cell densities observed in these experiments.

[7] = test system: human peripheral blood lymphocytes (PBL); test: human mixed lymphocyte reaction (MLR), 3H-thymidine incorporation; conditions: for CPM (counts per minute of incorporated 3H-thymidine): control 48064
Experimental: as §1
^1 Counts per minute of incorporate ^3 Hthymidine

murine splenocytes [8] = test: murine two-way mixed lymphocyte reaction (MLR), 3H-thymidine incorporation
Experimental: as §1

[9] = viability of human PBL in the Con A and PHA stimulation assays; conditions: peripheral blood lymphocytes, 50 and 25 μg/ml
Experimental: as §1

[10] = 50 and 25 μg/ml, mitogen 10 μg/ml

C=C/C=C\C(C)C(OC(N)=O)C(C)C(O)C(C)C/C(C)=C\C(C)C(O)C(C)/C=C\C(O)CC1OC(=O)C(C)C(O)C1C (single isomer, unassigned) [Discodermolide, discodermolide]
Con A (counts per minute of incorporated 3H-thymidine) ([1]; 6.3 μg/ml): 299518 Counts per minute | Con A (counts per minute of incorporated 3H-thymidine) ([1]; 12.5 μg/ml): 213740 Counts per minute | Con A (counts per minute of incorporated 3H-thymidine) ([1]; 25 μg/ml): 11567 Counts per minute | Con A (counts per minute of incorporated 3H-thymidine) ([1]; 50 μg/ml): 10230 Counts per minute | suppression of Con A stimulation of human PBL (in words) [1, 10]: suppressed | toxicity in the murine assay (in words) (murine splenocytes [2]; 0.5 μg/ml): no associated toxicity | toxicity in the murine assay (in words) (murine splenocytes [2]; 500, 50 and 5 μg/ml): with associated toxicity | viability ([3]; 0.5 μg/ml): 151% | viability ([3]; 5 μg/ml): 68% | viability ([3]; 50 μg/ml): 26% | viability ([3]; 500 μg/ml): < 1% | viability ([4]; peripheral blood lymphocytes, 0.4 μg/ml, read-out: % Viability (% viable cells as measured by M.T.T. metabolism)): 115% | viability ([4]; peripheral blood lymphocytes, 1.6 μg/ml, read-out: % Viability (% viable cells as measured by M.T.T. metabolism)): 110% | viability ([4]; peripheral blood lymphocytes, 3.1 μg/ml, read-out: % Viability (% viable cells as measured by M.T.T. metabolism)): 94% | viability ([4]; peripheral blood lymphocytes, 6.3 μg/ml, read-out: % Viability (% viable cells as measured by M.T.T. metabolism)): 94% | viability ([4]; peripheral blood lymphocytes, 12.5 μg/ml, read-out: % Viability (% viable cells as measured by M.T.T. metabolism)): 94% | viability ([4]; peripheral blood lymphocytes, 25 μg/ml, read-out: % Viability (% viable cells as measured by M.T.T. metabolism)): 102% | viability ([4]; peripheral blood lymphocytes, 50 μg/ml, read-out: % Viability (% viable cells as measured by M.T.T. metabolism)): 204% | viability ([4]; peripheral blood lymphocytes, 50, 25, 12.5, 6.3, 3.1 and 1.6 μg/ml, read-out: viability in the human MLR): > 94% | PHA (counts per minute of incorporated 3H-thymidine) ([5]; 6.3 μg/ml): 441580 Counts per minute | PHA (counts per minute of incorporated 3H-thymidine) ([5]; 12.5 μg/ml): 391633 Counts per minute | PHA (counts per minute of incorporated 3H-thymidine) ([5]; 25 μg/ml): 14425 Counts per minute | PHA (counts per minute of incorporated 3H-thymidine) ([5]; 50 μg/ml): 16984 Counts per minute | suppression of PHA stimulation of human PBL (in words) [5, 10]: suppressed | inhibition at 0.125 µg/mL ([6]; 0.125 μg/ml): 2% | inhibition at 0.25 µg/mL ([6]; 0.25 μg/ml): 12% | inhibition at 0.5 µg/mL ([6]; 0.5 μg/ml): 49% | inhibition at 1 µg/mL ([6]; 1.0 μg/ml): 75% | inhibition at 2.5 µg/mL ([6]; 2.5 μg/ml): 87% | inhibition at 5 µg/mL ([6]; 5 μg/ml): 88% | inhibition at 10 µg/mL ([6]; 10 μg/ml): 90% | inhibition at 20 µg/mL ([6]; 20 μg/ml): 92% | IC50 ([6]; read-out: IC50 (concentration resulting in 50% inhibition of proliferation)): 0.5 µg/mL (≈ 0.842 µM) | CPM (counts per minute of incorporated 3H-thymidine) ([7]; 0.4 μg/ml): 64211 CPM | CPM (counts per minute of incorporated 3H-thymidine) ([7]; 0.8 μg/ml): 49509 CPM | CPM (counts per minute of incorporated 3H-thymidine) ([7]; 1.6 μg/ml): 26336 CPM | CPM (counts per minute of incorporated 3H-thymidine) ([7]; 3.1 μg/ml): 8532 CPM | CPM (counts per minute of incorporated 3H-thymidine) ([7]; 6.3 μg/ml): 4996 CPM | CPM (counts per minute of incorporated 3H-thymidine) ([7]; 12.5 μg/ml): 2091 CPM | CPM (counts per minute of incorporated 3H-thymidine) ([7]; 25 μg/ml): 1728 CPM | CPM (counts per minute of incorporated 3H-thymidine) ([7]; 50 μg/ml): 1932 CPM | immunosuppressive activity in the human MLR (in words) ([7]; 50, 25, 12.5, 6.3, 3.1 and 1.6 μg/ml): immunosuppressive | immunosuppressive activity in the murine MLR (in words) (murine splenocytes [8]; 0.5 μg/ml): immunosuppressive | immunosuppressive activity in the murine MLR (in words) (murine splenocytes [8]; 500, 50 and 5 μg/ml): exhibited immunosuppressive activity | activity at 0.5 µg/mL (murine splenocytes [8]; Mus musculus, Splenocyte, 0.5 μg/ml, read-out: % MLR Control (percent of the control MLR response)): 18% | activity at 5 µg/mL (murine splenocytes [8]; Mus musculus, Splenocyte, 5 μg/ml, read-out: % MLR Control (percent of the control MLR response)): 25% | activity at 50 µg/mL (murine splenocytes [8]; Mus musculus, Splenocyte, 50 μg/ml, read-out: % MLR Control (percent of the control MLR response)): < 1% | activity at 500 µg/mL (murine splenocytes [8]; Mus musculus, Splenocyte, 500 μg/ml, read-out: % MLR Control (percent of the control MLR response)): < 1% | viability [9]: > 91%
